Here are results for nine compounds from PMC7688211, “Multiple Transporters and Glycoside Hydrolases Are Involved in Arabinoxylan-Derived Oligosaccharide Utilization in Bifidobacterium pseudocatenulatum” (Applied and Environmental Microbiology, 2020).

Where two headings read alike, the source gives them in different places.

What all share (assay): SPR (Biacore T200), SBP immobilised on CM5
Common to all, as to settings: 25°C, 20 mM phosphate/citrate pH 6.5, 150 mM NaCl, 0.005% Tween 20
A general note: In SPR one partner is held on a chip, and binding of the other changes the refractive index at the surface.

One test deals with T1, BpAXBP2.
T1 construct: gene BBPC_RS02280; predicted signal peptide removed, N-terminal His tag (pCold I), E. coli BL21; primers encode native start ASKDEN after IEGRH linker and end ALPTE; immobilised on CM5 chip
Details: species or system Bifidobacterium pseudocatenulatum.

A further test concerns the target T2, BpAXBP3 (Bifidobacterium pseudocatenulatum, UniProt A0ABY6YA63).
T2 construct: gene msmE_1; predicted signal peptide removed, N-terminal His tag (pCold I), E. coli BL21; primers encode native start KDDKTITFW after IEGRH linker and end AASKG; immobilised on CM5 chip
T2 sequence (A0ABY6YA63 29-424): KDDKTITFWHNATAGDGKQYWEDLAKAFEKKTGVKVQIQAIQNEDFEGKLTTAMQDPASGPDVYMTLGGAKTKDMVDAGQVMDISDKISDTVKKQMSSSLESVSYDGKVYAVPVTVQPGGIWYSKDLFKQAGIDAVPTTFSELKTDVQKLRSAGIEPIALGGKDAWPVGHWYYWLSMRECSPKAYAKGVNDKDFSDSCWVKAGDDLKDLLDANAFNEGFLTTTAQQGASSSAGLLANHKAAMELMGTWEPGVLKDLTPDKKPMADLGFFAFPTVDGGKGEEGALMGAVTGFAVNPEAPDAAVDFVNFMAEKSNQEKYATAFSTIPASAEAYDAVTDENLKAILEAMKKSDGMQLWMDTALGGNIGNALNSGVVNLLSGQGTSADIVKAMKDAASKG
It counts as binding.

The next test has as its target T3, BpAXBP1 (Bifidobacterium pseudocatenulatum, UniProt A0A087BW54).
T3 construct: predicted signal peptide removed, N-terminal His tag (pCold I), E. coli BL21; primers encode native start ACGGGTN after IEGRH linker and end KNLKVKK; immobilised on CM5 chip
T3 sequence (A0A087BW54 25-563): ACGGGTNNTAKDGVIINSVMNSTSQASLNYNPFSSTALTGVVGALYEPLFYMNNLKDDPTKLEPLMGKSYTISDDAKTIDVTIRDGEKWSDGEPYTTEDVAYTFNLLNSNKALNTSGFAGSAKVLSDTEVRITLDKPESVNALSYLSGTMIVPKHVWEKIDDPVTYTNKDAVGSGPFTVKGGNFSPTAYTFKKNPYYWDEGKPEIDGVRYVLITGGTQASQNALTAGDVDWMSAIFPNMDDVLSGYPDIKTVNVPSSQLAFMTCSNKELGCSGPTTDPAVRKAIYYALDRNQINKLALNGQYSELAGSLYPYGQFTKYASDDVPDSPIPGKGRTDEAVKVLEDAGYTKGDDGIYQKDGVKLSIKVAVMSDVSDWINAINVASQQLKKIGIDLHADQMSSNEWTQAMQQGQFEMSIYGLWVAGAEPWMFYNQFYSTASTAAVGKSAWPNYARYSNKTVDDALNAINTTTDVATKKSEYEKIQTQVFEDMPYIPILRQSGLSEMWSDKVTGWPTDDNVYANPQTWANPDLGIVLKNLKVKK
It counts as binding.

By Kd is commonly meant a measure of binding affinity in units of concentration. Take `OC[C@@H]1O[C@@H](O[C@@H]2[C@@H](O)[C@H](O[C@@H]3COC(O)[C@H](O)[C@H]3O)OC[C@H]2O)[C@H](O)[C@H]1O` (stereo partly drawn) [AXOS1, 3^2-α-L-arabinofuranosyl-xylobiose]: the Kd at BpAXBP2 was 0.66 µM; at BpAXBP3 it was under 100 µM.
`OC[C@@H]1O[C@@H](O[C@@H]2[C@@H](O[C@@H]3O[C@@H](CO)[C@H](O)[C@H]3O)[C@H](O[C@@H]3CO[C@@H](O[C@@H]4COC(O)[C@H](O)[C@H]4O)[C@H](O)[C@H]3O)OC[C@H]2O)[C@H](O)[C@H]1O` (stereo partly drawn) [AXOS2, 2^3,3^3-di-α-L-arabinofuranosyl-xylotriose] returned a Kd at BpAXBP2 of 0.69 µM.
Turning to `OC[C@@H]1O[C@@H](O[C@H]2[C@H](O[C@@H]3CO[C@@H](O[C@@H]4COC(O)[C@H](O)[C@H]4O)[C@H](O)[C@H]3O)OC[C@@H](O)[C@@H]2O)[C@H](O)[C@H]1O` (stereo partly drawn) [AXOS3, 2^3-α-L-arabinofuranosyl-xylotriose], the Kd at BpAXBP2 is 19.2 µM; at BpAXBP3 it was under 100 µM.
With `OC[C@@H]1O[C@@H](O[C@@H]2[C@@H](O)[C@H](O[C@@H]3CO[C@@H](O[C@@H]4COC(O)[C@H](O)[C@H]4O)[C@H](O)[C@H]3O)OC[C@H]2O[C@@H]2OC[C@@H](O)[C@H](O)[C@H]2O)[C@H](O)[C@H]1O` (stereo partly drawn) [AXOS4, 3^3-α-L-arabinofuranosyl-xylotetraose], the Kd was 103 µM on BpAXBP2, under 100 µM at BpAXBP3 and 7.5 µM at BpAXBP1 (read-out: Kd).
Turning to `OC1OC[C@@H](O[C@@H]2OC[C@@H](O)[C@H](O)[C@H]2O)[C@H](O)[C@H]1O` (stereo partly drawn) [XOS2, xylobiose], the Kd on BpAXBP3 is under 100 µM; at BpAXBP1, “BpAXBP1 exhibited a high affinity for XOS and AXOS4”.
Turning to `OC1OC[C@@H](O[C@@H]2OC[C@@H](O[C@@H]3OC[C@@H](O)[C@H](O)[C@H]3O)[C@H](O)[C@H]2O)[C@H](O)[C@H]1O` (stereo partly drawn) [XOS3, xylotriose], the Kd at BpAXBP3 is under 100 µM; on BpAXBP1 (read-out: Kd), 18.7 µM.
For the compound `OC1OC[C@@H](O[C@@H]2OC[C@@H](O[C@@H]3OC[C@@H](O[C@@H]4OC[C@@H](O)[C@H](O)[C@H]4O)[C@H](O)[C@H]3O)[C@H](O)[C@H]2O)[C@H](O)[C@H]1O` (stereo partly drawn) [XOS4, xylotetraose], the Kd is under 100 µM at BpAXBP3 and 0.63 µM on BpAXBP1 (read-out: Kd).
Turning to `OC1OC[C@@H](O[C@@H]2OC[C@@H](O[C@@H]3OC[C@@H](O[C@@H]4OC[C@@H](O[C@@H]5OC[C@@H](O)[C@H](O)[C@H]5O)[C@H](O)[C@H]4O)[C@H](O)[C@H]3O)[C@H](O)[C@H]2O)[C@H](O)[C@H]1O` (stereo partly drawn) [XOS5, xylopentaose], the Kd is under 100 µM on BpAXBP3 and 1.5 µM at BpAXBP1 (read-out: Kd).
As for `OC1OC[C@@H](O[C@@H]2OC[C@@H](O[C@@H]3OC[C@@H](O[C@@H]4OC[C@@H](O[C@@H]5OC[C@@H](O[C@@H]6OC[C@@H](O)[C@H](O)[C@H]6O)[C@H](O)[C@H]5O)[C@H](O)[C@H]4O)[C@H](O)[C@H]3O)[C@H](O)[C@H]2O)[C@H](O)[C@H]1O` (stereo partly drawn) [XOS6, xylohexaose], the Kd on BpAXBP3 is under 100 µM; on BpAXBP1 (read-out: Kd), 8.2 µM.
